What all share (assay type): cell-based
Data set [1] concerns Human liver cancer cell line HepG2. Briefly: Evaluation of hepatotoxic substance by high content analysis (Experimental Example 9). Conditions: for average cell number per sphere / average dead cell number in sphere / average sphere number per 20 mm^2 / projected area: 0.03 (w/v)% low-molecular agar medium, 2 days with flutamide. On the procedure: (§1) By a method similar to the preparation method of medium composition of Experimental Example 1, a medium composition containing 10 (v/v) % FBS and 0.03 (w/v) % of low-molecular agar (“ultraagar Ena”, manufactured by InaFood Industry) in DMEM (manufactured by Wako Pure Chemical Industries, Ltd.) was prepared. Human liver cancer cell line HepG2 (manufactured by DS PHARMA BIOMEDICAL CO., LTD.) was suspended in the above-mentioned medium composition containing low-molecular agar at 11,000 cells/mL. The above-mentioned cell suspension was dispensed to the wells of a 96 well flat bottom ultra-low attachment surface microplate (manufactured by Corning Incorporated, #3474) at 90 μL per 1 well, and the plate was cultured in a standing state in a CO2 incubator (37° C., 5% CO2) for 3 days. On day 3 of culture, flutamide (manufactured by Sigma-Aldrich) was added by 10 μL per 1 well. Successively, the plate was further cultured in a standing state in a CO2 incubator (37° C., 5% CO2) for 2 days. As a comparison control, HepG2 cells were suspended in DMEM containing 10 (v/v) % FBS and the suspension was dispensed to a 96 well flat bottom adhesion surface microplate (manufactured by Corning Incorporated, #3585), and a similar operation was performed.
Then, a solution of […] of Hoechst 33342 (manufactured by Invitrogen) in DMEM (phenol red, L-glutamine free) (manufactured by Wako Pure Chemical Industries, Ltd.) was prepared, and added, at 10 μL per 1 well, to each culture after static culture for 5 days using the above-mentioned low-molecular agar-containing medium and comparison control, and the mixture was stood in a CO2 incubator (37° C., 5% CO2) for 45 min. Successively, a solution of 20 μg/mL Propidium Iodide (manufactured by BIOMOL) in DMEM (phenol red, L-glutamine free) (manufactured by Wako Pure Chemical Industries, Ltd.) was prepared and added at 10 μL per 1 well, and the culture medium was suspended. The plate was centrifuged at 1,500 rpm for 1 min, and high content analysis was performed by cell image analysis using a cell imaging apparatus (“ArrayScan VTI HCS Reader”, manufactured by Thermo Fisher Scientific). At that time, observation was performed with 20 fields of view per well using a ×10 objective lens, cell outline and cell nucleus were detected from Hoechst33342 fluorescence image, and dead cells were detected from propidium iodide fluorescence image. In addition, 50% inhibitory concentration (μM) of flutamide by high content analysis was calculated from the number of cells constituting the spheres, with the value without addition of flutamide as 0% sphere formation inhibitory rate.
(§2) The number of constituent cells of HepG2 cell spheres, sphere number, projected area of sphere (size) (μm^2) and the dead cell number in the sphere, obtained from the cell imaging analysis, are shown in Table 26. Furthermore, the relative cell number when the amount of luminescence without addition of the anticancer agent is 100 was determined from the measurement results of the surviving cell number by luminescence, using the intracellular ATP as an index, and shown in Table 27. In addition, the 50% inhibitory concentration (μM) of flutamide calculated from the amount of luminescence based on intracellular ATP and constituent cell number obtained by high content analysis are shown in Table 28.

Data set [2] has the same test system. The data set is described as follows: Evaluation of hepatotoxic substance by CellTiter-Glo cell survival assay (Experimental Example 9). Conditions: for IC50: Homo sapiens, HepG2, cell survival assay by luminescence, read-out: 50% inhibitory concentration. The procedure: as §1
CellTiter-Glo Luminescent Cell Viability Assay (manufactured by Promega) (100 μL) was added to the low-molecular agar-containing culture medium and comparison control, the mixture was stood for 10 min at room temperature, and the amount of luminescence was measured by a microplate reader (“FlexStation 3”, manufactured by Molecular Devices) and according to the protocol recommended by Promega. The amount of luminescence of the medium alone was subtracted, whereby the number of viable cells was measured. In addition, 50% inhibitory concentration (μM) of flutamide by the amount of luminescence was calculated with the number of viable cells when flutamide was not added as 0% inhibition rate.
as §2
For orientation: In ATP-based viability assays light output follows the ATP content of the culture.

Data set [3] relates to human ovarian cancer cell line SKOV3. Briefly: Cell proliferation test by dispersing SKOV3 cells with growth factors (Experimental Example 4). Particulars: 10 days. The procedure: By a method similar to the preparation method of medium composition in Analysis Example 1, a medium composition containing 10 (v/v) % FBS, and 0.03 (w/v) % of low-molecular agar in DMEM (manufactured by Wako Pure Chemical Industries, Ltd.) was prepared.
Then, human ovarian cancer cell line SKOV3 (manufactured by DS PHARMA BIOMEDICAL CO., LTD.) was suspended in the above-mentioned medium composition containing low-molecular agar at 37,000 cells/mL, and dispensed to the wells of a 96 well flat plane ultra-low attachment surface microplate (manufactured by Corning Incorporated, #3474) at 135 μL per 1 well. The plate was stood in a CO2 incubator (37° C., 5% CO2), and a growth factor was added the next day. A similar operation was performed with 10 (v/v) % FBS-containing DMEM free of low-molecular agar. As a growth factor, human heparin bindability epithelial cell growth factor (hHB-EGF) (manufactured by PeproTech, Inc.) at a final concentration of 30 ng/mL or 100 ng/mL, human epithelial cell growth factor (hEGF) (manufactured by PeproTech, Inc.) and human transforming growth factor α (hTGFα) (manufactured by PeproTech, Inc.) each at a final concentration of 1 ng/mL, 3 ng/mL or 10 ng/mL were added by 15 μL per 1 well.
Successively, the plate was cultured in a standing state in a CO2 incubator (37° C., 5% CO2) for 10 days. As a negative control, DMEM in an amount equal to that of a growth factor was added. CellTiter-Glo Luminescent Cell Viability Assay (manufactured by Promega) (100 μL) was added to the cell culture medium after culturing for 10 days, stood for 10 min at room temperature, and the amount of luminescence was measured by a microplate reader (“FlexStation 3”, manufactured by Molecular Devices) and according to the protocol recommended by Promega. The amount of luminescence of the medium composition alone was subtracted, whereby the number of viable cells was measured.
The relative cell number when the amount of luminescence of the negative control is 1 was determined from the amount of luminescence (corresponding to the number of SKOV3 cells) after culturing for 10 days after the addition of the growth factor, and shown in Table 11.

Regarding `CC(C)C(=O)Nc1ccc([N+](=O)[O-])c(C(F)(F)F)c1` [flutamide], the IC50 is 73.4 µM in data set [1] (Homo sapiens, HepG2, high content analysis by cell image analysis, number of cells constituting the spheres, low-molecular agar-containing medium, read-out: 50% inhibitory concentration); 51.7 µM in data set [2] (comparison control (DMEM, 10% FBS, adhesion surface plate)); 53.6 µM in data set [2] (low-molecular agar containing medium). Further, the “average cell number per sphere” value in data set [1] (flutamide 0.8 μM) is 7.977; in data set [1] (flutamide 4 μM) it was 8.89; in data set [1] (flutamide 20 μM), 9.263; in data set [1] (flutamide 100 μM) it was 3.76; in data set [1] (flutamide 500 μM), 1.567. The “average dead cell number in sphere” value in data set [1] (flutamide 0.8 μM) is listed as 0.06; in data set [1] (flutamide 4 μM) it was 0.037; in data set [1] (flutamide 20 μM), 0.067; in data set [1] (flutamide 100 μM) it was 0.007; in data set [1] (flutamide 500 μM) it was 1.163. In addition, the “average sphere number per 20 mm^2” value in data set [1] (flutamide 0.8 μM) worked out at 190.7; in data set [1] (flutamide 4 μM), 145.3; in data set [1] (flutamide 20 μM) it was 129.7; in data set [1] (flutamide 100 μM), 153.7; in data set [1] (flutamide 500 μM), 7.3. The projected area is 1988 μm^2 in data set [1] (flutamide 0.8 μM); 2180 μm^2 in data set [1] (flutamide 4 μM); 2403 μm^2 in data set [1] (flutamide 20 μM); 861 μm^2 in data set [1] (flutamide 100 μM); 408 μm^2 in data set [1] (flutamide 500 μM). The “relative cell number (no addition = 100)” value is given as 100.2 in data set [2] (flutamide 0.8 μM, comparison control (DMEM, 10% FBS, adhesion surface plate)); 109.6 in data set [2] (flutamide 0.8 μM, low-molecular agar-containing medium); 109.6 in data set [2] (flutamide 4 μM, comparison control (DMEM, 10% FBS, adhesion surface plate)); 98.7 in data set [2] (flutamide 4 μM, low-molecular agar-containing medium); 93.5 in data set [2] (flutamide 20 μM, comparison control (DMEM, 10% FBS, adhesion surface plate)); 89.8 in data set [2] (flutamide 20 μM, low-molecular agar-containing medium). Further, the “relative cell number (no addition = 100)” value was found to be 22.5 in data set [2] (flutamide 100 μM, comparison control (DMEM, 10% FBS, adhesion surface plate)); 22.4 in data set [2] (flutamide 100 μM, low-molecular agar-containing medium); 15.4 in data set [2] (flutamide 500 μM, comparison control (DMEM, 10% FBS, adhesion surface plate)); 8.1 in data set [2] (flutamide 500 μM, low-molecular agar-containing medium).
On to “hTGFα: human transforming growth factor α (PeproTech)”, for which the “relative cell number (negative control = 1)” value is on record as 1.448 in data set [3] (growth factor 1 ng/mL, low-molecular agar 0 (w/v)%); 1.371 in data set [3] (growth factor 1 ng/mL, low-molecular agar 0.03 (w/v)%); 1.445 in data set [3] (growth factor 3 ng/mL, low-molecular agar 0 (w/v)%); 1.916 in data set [3] (growth factor 3 ng/mL, low-molecular agar 0.03 (w/v)%); 1.512 in data set [3] (growth factor 10 ng/mL, low-molecular agar 0 (w/v)%); 2.167 in data set [3] (growth factor 10 ng/mL, low-molecular agar 0.03 (w/v)%).

The values are drawn from US10914725B2, “Culture medium additive, culture medium composition, and method for culturing cells or tissue using same” (NISSAN CHEMICAL INDUSTRIES, LTD., priority 2015, dated 2021).
